Measured values: patent US4002690A (priority 1974, dated 1977)
Where a name gives a salt, the structure may show the parent alone.

What was measured:
[1] = test system: Newcastle disease virus (NDV); test: microbe, parasite or virus in culture; type: cell-based, Newcastle disease virus (host: chick embryo); conditions: for inhibition at 39 µg/mL / inhibition at 78 µg/mL / inhibition at 156 µg/mL: avian paramyxovirus 1, in Gallus gallus, 48 h, read-out: % Inhibition of NDV Multiplications
[2] = Antiviral activity in vivo (statement only); conditions: no test details given

Compound: NC12CC3CC(CC(C3)C1)C2 [Amantadine.HCl, reference compound]
- inhibition at 39 µg/mL [1]: 0%
- inhibition at 78 µg/mL [1]: 0%
- inhibition at 156 µg/mL [1]: 0%

Compound: OCC12CCCC3CC(CCC31)C2 (stereo not drawn) [II]
- antiviral activity in vivo [2]: potent antiviral activity in vivo
- antiviral activity compared with Amantadine hydrochloride ([1]; NDV, in vitro, chick embryo monolayer tissue culture): extremely superior to that of Amantadine hydrochloride
- inhibition at 39 µg/mL [1]: 0%
- inhibition at 78 µg/mL [1]: 91.2%
- inhibition at 156 µg/mL [1]: 99.8%
- virus replication in the tissue culture ([1]; containing above 39 μg/ml of carbinol (II)): almost completely inhibited
